{"source": "ChEMBL document CHEMBL2163345", "about": "“Part II. Development of novel colchicine-derived immunosuppressants with improved pharmacokinetic properties” (Bioorg Med Chem Lett, 2012)", "key": {"Splenocyte": {"test_system": "Splenocyte", "experiment": "Immunosuppressant activity in mouse splenocytes by mixed-leukocyte reaction assay", "format": "functional, cell-based"}, "[1]": {"experiment": "Solubility of the compound in presence of 20% serum", "format": "physicochemical"}, "[2]": {"experiment": "Mean residence time (infinity) in BALB/c mouse at 0.5 mg/kg, iv", "format": "ADME, organism-based", "parameters": "dose 0.5 mg/kg, route intravenous", "conditions": "in vivo"}, "[3]": {"experiment": "Tmax in BALB/c mouse at 1 mg/kg, po", "format": "ADME, organism-based", "parameters": "dose 1 mg/kg, route oral", "conditions": "in vivo"}, "[4]": {"experiment": "Cmax in BALB/c mouse at 1 mg/kg, po", "format": "ADME, organism-based", "parameters": "dose 1 mg/kg, route oral", "conditions": "in vivo"}, "[5]": {"experiment": "Immunosuppressant activity in chicken B-lymphocyte activated splenic lymphocytes assessed as inhibition of LPS-induced cell proliferation by [3H]thymidine incorporation assay", "format": "functional", "conditions": "Gallus gallus"}, "[6]": {"experiment": "Antiproliferative activity against BMDM cells", "format": "cell-based"}, "[7]": {"experiment": "Immunosuppressant activity in chicken T-lymphocyte activated splenic lymphocytes assessed as inhibition of ConA-induced cell proliferation by [3H]thymidine incorporation assay", "format": "functional", "conditions": "Gallus gallus"}, "[8]": {"experiment": "Antiproliferative activity against B cells", "format": "cell-based", "conditions": "b-cell"}, "B-cell": {"test_system": "B-cell", "experiment": "Antiproliferative activity against LPS-induced B cells", "format": "functional, cell-based"}, "[9]": {"experiment": "Half life in BALB/c mouse at 1 mg/kg, po", "format": "ADME, organism-based", "parameters": "dose 1 mg/kg, route oral", "conditions": "in vivo"}, "[10]": {"experiment": "Oral bioavailability in BALB/c mouse at 1 mg/kg", "format": "ADME, organism-based", "conditions": "in vivo"}, "Mus musculus [11]": {"organism": "Mus musculus", "experiment": "Immunosuppressant activity in C57BL/6 mouse assessed as inhibition of zymosan A-induced arthritis", "format": "functional, organism-based"}, "Mus musculus [12]": {"test_system": "Mus musculus", "experiment": "Immunosuppressant activity in C57BL/6 mouse assessed as inhibition of carrageenan-induced paw edema", "format": "functional, organism-based"}, "Dendritic cell": {"test_system": "Dendritic cell", "experiment": "Antiproliferative activity against LPS-induced bone marrow-derived dendritic cells", "format": "functional, cell-based"}, "BMDM": {"test_system": "BMDM", "experiment": "Antiproliferative activity against LPS-induced BMDM cells", "format": "functional, cell-based"}, "[13]": {"experiment": "Clearance in BALB/c mouse at 0.5 mg/kg, iv", "format": "ADME, organism-based", "parameters": "dose 0.5 mg/kg, route intravenous", "conditions": "in vivo"}, "[14]": {"experiment": "AUC (0 to infinity) in BALB/c mouse at 1 mg/kg, po", "format": "ADME, organism-based", "parameters": "time infinity, dose 1 mg/kg, route oral", "conditions": "plasma"}, "T-cell": {"test_system": "T-cell", "experiment": "Antiproliferative activity against ConA-induced T cells", "format": "functional, cell-based"}, "[15]": {"experiment": "AUC (0 to infinity) in BALB/c mouse at 0.5 mg/kg, iv", "format": "ADME, organism-based", "parameters": "time infinity, dose 0.5 mg/kg, route intravenous", "conditions": "plasma"}, "[16]": {"experiment": "Half life in BALB/c mouse at 0.5 mg/kg, iv", "format": "ADME, organism-based", "parameters": "dose 0.5 mg/kg, route intravenous", "conditions": "in vivo"}, "[17]": {"experiment": "Antiproliferative activity against T cells", "format": "cell-based", "conditions": "t-cell"}, "[18]": {"experiment": "Antiproliferative activity against bone marrow-derived dendritic cells", "format": "cell-based", "conditions": "dendritic cell"}, "[19]": {"experiment": "Mean residence time (infinity) in BALB/c mouse at 1 mg/kg, po", "format": "ADME, organism-based", "parameters": "dose 1 mg/kg, route oral", "conditions": "in vivo"}, "Mus musculus [20]": {"organism": "Mus musculus", "experiment": "Immunosuppressant activity in C57BL/6 mouse assessed as inhibition of DNCB-induced cytokine release by local lymph node assay", "format": "functional, organism-based"}, "[21]": {"experiment": "Volume of distribution at steady state in BALB/c mouse at 0.5 mg/kg, iv", "format": "ADME, organism-based", "parameters": "dose 0.5 mg/kg, route intravenous", "conditions": "in vivo, read-out: Vdss"}, "[22]": {"conditions": "Mus musculus, Splenocyte, read-out: IC50"}}, "note": "Activity calls are given as the source filed them. The rule behind the calls is not given here.", "data": [{"smiles": "COc1cc2c(c(OC)c1OC)-c1ccc(SC)c(=O)cc1[C@@H](NC(=O)C1NC1C)CC2", "note": "(stereo not given in full)", "values": [{"measurement": "IC50", "setting": "Splenocyte; [22]", "result": 46, "unit": "nM"}]}, {"smiles": "COc1cc2c(c(OC)c1OC)-c1ccc(OC)c(=O)cc1[C@@H](NC(C)=O)CC2", "note": "[COLCHICINE]", "values": [{"measurement": "solubility", "setting": "[1]", "result": 300, "unit": "µM"}]}, {"smiles": "COc1cc2c(c(OC)c1OC)-c1ccc(S(C)(=O)=O)c(=O)cc1[C@@H](NC(=O)C1CC1C)CC2", "note": "(stereo not given in full)", "values": [{"measurement": "IC50", "setting": "Splenocyte; splenocyte", "result": "Not Active"}]}, {"smiles": "C=C(CC)C(=O)N[C@H]1CCc2cc(OC)c(OC)c(OC)c2-c2ccc(SC)c(=O)cc21", "values": [{"measurement": "IC50", "setting": "Splenocyte; [22]", "result": 86, "unit": "nM"}]}, {"smiles": "C=CCC(=O)N[C@H]1CCc2cc(OC)c(OC)c(OC)c2-c2ccc(SC)c(=O)cc21", "values": [{"measurement": "IC50", "setting": "Splenocyte; [22]", "result": 702, "unit": "nM"}]}, {"smiles": "COc1cc2c(c(OC)c1OC)-c1ccc(SC)c(=O)cc1[C@@H](NC(=O)C1C(C)N1C)CC2", "note": "(stereo not given in full)", "values": [{"measurement": "IC50", "setting": "Splenocyte; [22]", "result": 38, "unit": "nM"}]}, {"smiles": "C/C=C/CC(=O)N[C@H]1CCc2cc(OC)c(OC)c(OC)c2-c2ccc(SC)c(=O)cc21", "values": [{"measurement": "IC50", "setting": "Splenocyte; [22]", "result": 1670, "unit": "nM"}]}, {"smiles": "COc1cc2c(c(OC)c1OC)-c1ccc(SC)c(=O)cc1[C@@H](NC(=O)C1CC1C)CC2", "note": "(stereo not given in full)", "values": [{"measurement": "MRT inf", "setting": "[2]", "result": 0.6, "unit": "h"}, {"measurement": "Tmax", "setting": "[3]", "result": 0.25, "unit": "h"}, {"measurement": "Cmax", "setting": "[4]", "result": 254, "unit": "ng/mL"}, {"measurement": "IC50", "setting": "[5]", "result": 0.0059, "unit": "µg/mL"}, {"measurement": "Activity", "setting": "[6]", "result": "Non-toxic"}, {"measurement": "IC50", "setting": "[7]", "result": 0.031, "unit": "µg/mL"}, {"measurement": "Activity", "setting": "[8]", "result": "Non-toxic"}, {"measurement": "Activity", "setting": "B-cell", "result": "Active"}, {"measurement": "half-life", "setting": "[9]", "result": 2.9, "unit": "h"}, {"measurement": "bioavailability", "setting": "[10]", "result": 67.3, "unit": "%"}, {"measurement": "inhibition", "setting": "Mus musculus [11]", "result": "Dose-dependent effect"}, {"measurement": "inhibition", "setting": "Mus musculus [12]", "result": "Dose-dependent effect"}, {"measurement": "Activity", "setting": "Dendritic cell", "result": "Active"}, {"measurement": "Activity", "setting": "BMDM", "result": "Active"}, {"measurement": "clearance", "setting": "[13]", "result": 41.7, "unit": "mL/min/kg"}, {"measurement": "AUC(0-inf)", "setting": "[14]", "result": 269, "unit": "ng·h/mL"}, {"measurement": "Activity", "setting": "T-cell", "result": "Active"}, {"measurement": "AUC(0-inf)", "setting": "[15]", "result": 200, "unit": "ng·h/mL"}, {"measurement": "half-life", "setting": "[16]", "result": 2.9, "unit": "h"}, {"measurement": "Activity", "setting": "[17]", "result": "Non-toxic"}, {"measurement": "Activity", "setting": "[18]", "result": "Non-toxic"}, {"measurement": "MRT inf", "setting": "[19]", "result": 2.2, "unit": "h"}, {"measurement": "inhibition", "setting": "Mus musculus [20]", "result": "Active"}, {"measurement": "Vd", "setting": "[21]", "result": 1.6, "unit": "L/kg"}, {"measurement": "IC50", "setting": "Splenocyte; [22]", "result": 5, "unit": "nM"}]}, {"smiles": "COc1cc2c(c(OC)c1OC)-c1ccc(OC)c(=O)cc1[C@@H](NC(=O)C1CC1C)CC2", "note": "(stereo not given in full)", "values": [{"measurement": "IC50", "setting": "Splenocyte; [22]", "result": 1250, "unit": "nM"}]}, {"smiles": "COc1cc2c(c(OC)c1OC)-c1cccc(=O)cc1[C@@H](NC(=O)C1CC1C)CC2", "note": "(stereo not given in full)", "values": [{"measurement": "IC50", "setting": "Splenocyte; splenocyte", "result": "Not Active"}]}, {"smiles": "COc1cc2c(c(OC)c1OC)-c1ccc(SC)c(=O)cc1[C@H](NC(=O)C1CC1C)CC2", "note": "(stereo not given in full)", "values": [{"measurement": "IC50", "setting": "Splenocyte; splenocyte", "result": "Not Active"}]}, {"smiles": "C=CC(=C)C(=O)N[C@H]1CCc2cc(OC)c(OC)c(OC)c2-c2ccc(SC)c(=O)cc21", "values": [{"measurement": "IC50", "setting": "Splenocyte; [22]", "result": 112, "unit": "nM"}]}, {"smiles": "COc1cc2c(c(OC)c1OC)-c1ccc(SC)c(=O)cc1[C@@H](NC(=O)c1cccc(CO[N+](=O)[O-])c1)CC2", "values": [{"measurement": "solubility", "setting": "[1]", "result": 10, "unit": "µM"}]}, {"smiles": "COc1cc2c(c(OC)c1OC)-c1ccc([S+](C)[O-])c(=O)cc1[C@@H](NC(=O)C1CC1C)CC2", "note": "(stereo not given in full)", "values": [{"measurement": "IC50", "setting": "Splenocyte; splenocyte", "result": "Not Active"}]}, {"smiles": "C/C=C/C(=O)N[C@H]1CCc2cc(OC)c(OC)c(OC)c2-c2ccc(SC)c(=O)cc21", "values": [{"measurement": "IC50", "setting": "Splenocyte; [22]", "result": 67, "unit": "nM"}]}, {"smiles": "C=C(C)/C=C(\\CC)C(=O)N[C@H]1CCc2cc(OC)c(OC)c(OC)c2-c2ccc(SC)c(=O)cc21", "values": [{"measurement": "IC50", "setting": "Splenocyte; [22]", "result": 31, "unit": "nM"}]}, {"smiles": "COc1cc2c(c(OC)c1OC)-c1ccc(SC)c(=O)cc1[C@@H](NC(=O)C1OC1C)CC2", "note": "(mixture of isomers)", "values": [{"measurement": "IC50", "setting": "Splenocyte; [22]", "result": 119, "unit": "nM"}]}, {"smiles": "COc1cc2c(c(OC)c1OC)-c1ccc(SC)c(=O)cc1[C@@H](NC(=O)CCCO[N+](=O)[O-])CC2", "values": [{"measurement": "solubility", "setting": "[1]", "result": 100, "unit": "µM"}]}, {"smiles": "C/C=C/C=C/C(=O)N[C@H]1CCc2cc(OC)c(OC)c(OC)c2-c2ccc(SC)c(=O)cc21", "values": [{"measurement": "IC50", "setting": "[5]", "result": 0.0057, "unit": "µg/mL"}, {"measurement": "IC50", "setting": "[7]", "result": 0.0407, "unit": "µg/mL"}, {"measurement": "IC50", "setting": "Splenocyte; [22]", "result": 4, "unit": "nM"}]}]}
